The results in this text go back to patent US20260152480A1, “POLYCYCLIC COMPOUND AND USE THEREOF” (TYK MEDICINES , INC., priority 2022, published 2026).

Structures are written as SMILES. Like-named read-outs stand apart in the source and are kept apart here.

Test [1] has as its system Human pleural mesothelioma cells NCI-H226. In words: Proliferation inhibition assay of human pleural mesothelioma cells NCI-H226 (CCK8). The format is cell-based. The settings on record: 72 h, 3 days incubation. An excerpt:
Experimental Example 1 Cell Anti-Proliferation Test
Proliferation Inhibition Assay of Human Pleural Mesothelioma Cells NCI-H226 by YAP-TEAD Inhibitor Compounds
Experimental materials and equipment: Human pleural mesothelioma cells NCI-H226 were purchased from Nanjing Cobioer Biosciences CO., LTD. RPMI-1640 medium (Bio-Channel), DMSO (dimethyl sulfoxide), CCK8 (WST-8) cell analysis kit (Beyotime), 0.25% EDTA-Tripsin (trypsin solution), 1×PBS (phosphate buffer, PH7.2), 96-well plate (Corning), fetal bovine serum (FBS), 10,000 U/mL penicillin-G/streptomycin, high-speed cryo-centrifuge (EPPENDORF 5810R), enzyme-linked immunoassay (Tecan Spark).
• A) Tumor cells were cultured in RPMI-1640 (containing 10% FBS and 100 U/mL penicillin-G/streptomycin) at 37° C., 5% CO^2 and saturated humidity until 80-90% density. • B) Removed the culture medium from 10 cm Petri dishes; • C) Rinsed the cells once with 10 ml 1×PBS; • D) Added 4 ml 0.25% EDTA-Tripsin into 37° C., 5% CO^2 incubator for trypsin digestion for 5 minutes, transferred to 15 ml centrifuge tube, centrifuged at 200 g for 5 minutes, discarded the supernatant to get cell precipitate; • E) Resuspend with 4 ml DMEM medium, count and adjust to 10,000 cells/ml. • F) Added cell suspension to 96-well plate with 100 μL per well volume and incubate overnight at 37° C., 5% CO^2 incubator.
• A) Preparation of gradient dilution solution of tested compounds: the test compounds were configured into 1 mM reservoir solution. Then 1.5 μl of the reservoir solution was dissolved in 1.5 ml of DMSO-free culture solution, and then a 3-fold serial gradient dilution was performed with 0.1% DMSO culture solution for a total of 9 concentrations, and the concentrations of the compounds after dilution were as follows: • 333.33 nM, 111.11 nM, 37.03 nM, 12.35 nM, 4.15 nM, 1.37 nM, 0.46 nM, 0.15 nM • B) After thorough mixing, 100 μL of culture compound solution was taken separately to replace the culture solution in the cell culture plate, with 4 replicate wells for each concentration; • C) The cells were transferred to the incubator and incubated for 3 days.
• A) Removed the cell culture plate and added 10 μl of CCK-8 (WST-8) solution per well in the biosafety cabinet. • B) Placed the cell culture plate back into the incubator and continued incubation for 3 hours. • C) Determined the absorbance value by selecting 450 nm on a TECAN enzyme-linked immunoassay detector.
The cell viability (% Cell Viability) was calculated using the following formula.
[formula] • A (dosing): absorbance of wells with cells, CCK8 solution and drug solution • A (blank): absorbance of wells with medium and CCK8 solution but no cells • A (0 dosing): absorbance of wells with cells, CCK8 solution and no drug solution • Cell viability: Cell proliferation viability or cytotoxicity viability IC50 values were obtained by curve fitting with GraphPad Prism 8 software.

The next test relates to YAP-TEAD. In words: Nano luciferase method to detect YAP-TEAD inhibitor activity (293T cells transfected with pGL3B-8×GTiiC-nLuc-CMV-fLuc). The format is cell-based. The settings on record: Homo sapiens, HEK-293T, transfected 293T cells, 48 hours incubation, read-out: Nano Luciferas detection (IC50). From the text: Experimental Example 2 Nano Luciferase Method to Detect YAP-TEAD Inhibitor Activity
(1) Experimental materials and equipment: 293T cells were purchased from Nanjing Cobioer Biosciences CO., LTD. DMEM medium (high sugar, phenol red free, Bio-Channel), DMSO (dimethyl sulfoxide), Lipo6000™ transfection reagent (Beyotime), pGL3B-8×GTiiC-nLuc-CMV-fLuc plasmid, 0.25% EDTA Tripsin (trypsin solution), 1×PBS (phosphate buffer, PH7.2), 96-well white cell culture plate (PerkinElmer), Fetal Bovine Serum (FBS), 10,000 U/mL penicillin-G/streptomycin, High-speed cryo-centrifuge (EPPENDORF 5810R), 37° C. CO^2 incubator, Vi-Cell® cell counter, Envision microplate reader (PerkinElmer).
Resuscitated 293T cells were inoculated into 10 cm petri dishes and placed in a 5% CO^2 incubator at a constant temperature of 37° C. To ensure transfection efficiency, cells in the logarithmic phase (cell density of about 50%-70%) should be used.
One day before transfection, cells in logarithmic phase were digested with Trypsin-EDTA, the reaction was terminated by adding medium, and the cell suspension was made by blowing and mixing with a pipette.
The cell concentration was determined using Vi-cell and diluted to a suspension of 5*10^5 cells per milliliter. Once the cell suspension was prepared, it was gently mixed and 10 ml of liquid was added to a 10 cm petri dish. […] The cells were incubated in a 5% CO^2 incubator at 37° C. for 1 day.
Take two clean and sterile centrifuge tubes, added 750 μL of opti-MEM Medium without antibiotics and serum respectively, then added […] of plasmid (pGL3B-8×GTiiC-nLuc-CMV-fLuc) to one of the tubes and gently blown with a pipette for mixing; the other tube was added with Lipo6000 transfection reagent and gently blown with a pipette for mixing. After standing at room temperature for 5 minutes, the culture medium containing DNA was gently added to the culture medium containing Lipo6000 transfection reagent, mixed by gently inverting the centrifuge tube, and stood at room temperature for 5 minutes.
The above mixture was added evenly dropwise to a 10-cm petri dish and replaced with fresh complete medium after 6 h of incubation.
After 1 day of transfection, Trypsin EDTA was used to digest the cells, medium was added to terminate the reaction, and a cell suspension was made by blowing and mixing with a pipette.
Cell concentration was determined using Vi-cell, and diluted to a suspension of 20,000 cells per milliliter.
After the cell suspension was prepared, it was gently mixed and 100 μL was added to each well in a 96-well plate so that the density of cells to be measured was 2000 per well.
The inoculated cell culture plates were incubated in an incubator, and the compounds in concentration gradients were added after about 24 hours.
The 10 mM compound reservoir solution was diluted to 50 μM with culture medium, and 50 μM compound solution was added sequentially to the third column of the deep-well plate, and 216 μL of culture medium containing 0.5% DMSO to the fourth to eleventh columns.
Gradient dilution: 100 μL of solution was pipetted from the third column and added to the fourth column, after mixing; another 100 μL of solution was pipetted from the fourth column and added to the fifth column, and the operation was repeated until the eleventh column.
Using a multichannel pipette, 25 μL of compound solution was pipetted from the deep-well plate and added to the 96-well culture plate, and each compound was repeated four times on the 96-well plate. A concentration gradient with a maximum concentration of 10,000 nM, 1:3.16, was eventually formed on the 96-well plate.
The 96-well plate was incubated in a 5% CO^2 incubator at a constant temperature of 37° C. for 48 hours, then removed and equilibrated at room temperature for 10 minutes.
100 μL of detection reagent was added to each well and placed on a horizontal shaker at low speed for 10 minutes to fully lyse the cells. […]

Setting [2] is: reference compounds of WO2009081259A1.

What is called IC50 is the concentration at which inhibition is half-maximal. In the case of `C=CC(=O)N1CCC(c2ccc(C(F)(F)F)nc2Nc2ccc(C(F)(F)F)cc2)CC1` [Compound T45], the IC50 in test [1] fell in the range of 1 to 5 µM; in the test on YAP-TEAD it was 0.1 to 1 µM.

`C=CC(=O)N1CCC(c2cc(C(F)(F)F)cnc2Nc2ccc(C(F)(F)F)cc2)CC1` [Compound T47]: the IC50 (in test [1]; in the test on YAP-TEAD) was 0.1 to 1 µM throughout.

`C=C(C)C(=O)N1CCC(c2cccnc2Nc2ccc(C(F)(F)F)cc2)CC1` [Compound T48]: the IC50 (in test [1]; in the test on YAP-TEAD) was 1 to 5 µM throughout.

Turning to `C#CC(=O)N1CCC(c2cccnc2Nc2ccc(C(F)(F)F)cc2)CC1` [Compound T49], the values for the IC50 (in test [1]; in the test on YAP-TEAD) were 1 to 5 µM and not above 0.1 µM, respectively.

Consider `CC#CC(=O)N1CCC(c2cccnc2Nc2ccc(C(F)(F)F)cc2)CC1` [Compound T50], for which the IC50 (in test [1]; with YAP-TEAD) was 1 to 5 µM each time.

Turning to `C=C(F)C(=O)N1CCC(c2cccnc2Nc2ccc(C(F)(F)F)cc2)CC1` [Compound T51], the IC50 (in test [1]; in the test on YAP-TEAD) was 0.1 to 1 µM in each case.

As for `CC/C=C/C(=O)N1CCC(c2cccnc2Nc2ccc(C(F)(F)F)cc2)CC1` [Compound T52], the IC50 was in the range of 1 to 5 µM in test [1] and 0.1 to 1 µM with YAP-TEAD.

With `C/C=C/C(=O)N1CCC(c2cccnc2Nc2ccc(C(F)(F)F)cc2)CC1` [Compound T53], the IC50 was in the range of 1 to 5 µM in test [1] and 0.1 to 1 µM with YAP-TEAD.

For the molecule `C=CC(=O)N1CCC(c2cc(-c3ccn(C)n3)cnc2Nc2ccc(C(F)(F)F)cc2)CC1` [Compound T54], the IC50 in test [1] is 0.1 to 1 µM; in the test on YAP-TEAD it was not above 0.1 µM.

Turning to `C=CC(=O)N1CCC(c2cc(-c3cn[nH]c3)cnc2Nc2ccc(C(F)(F)F)cc2)CC1` [Compound T55], the IC50 (in test [1]; in the test with YAP-TEAD) was 0.1 to 1 µM throughout.

Regarding `C=CC(=O)N1CCC(c2cc(-c3ccccc3)cnc2Nc2ccc(C(F)(F)F)cc2)CC1` [Compound T56], the IC50 (in test [1]; with YAP-TEAD) was not above 0.1 µM in each case.

Consider `C=CC(=O)N1CC2(C1)CN(c1nccnc1Nc1ccc(C(F)(F)F)cc1)C2` [Compound T57], for which the IC50 (in test [1]; in the test on YAP-TEAD) was not above 0.1 µM in each case.

In the case of `C=CC(=O)N1CCC(c2cc(-c3ccnn3C)cnc2Nc2ccc(C(F)(F)F)cc2)CC1` [Compound T60], the values for the IC50 (in test [1]; in the test on YAP-TEAD) were 1 to 5 µM and 0.1 to 1 µM, respectively.

Regarding `C=CC(=O)N1CCC(c2cc(-c3cn(C)cn3)cnc2Nc2ccc(C(F)(F)F)cc2)CC1` [Compound T62], the figures for the IC50 (in test [1]; in the test on YAP-TEAD) were 0.1 to 1 µM and not above 0.1 µM, respectively.

Take `C=CC(=O)N1CCC(c2cccnc2N(C)c2ccc(C(F)(F)F)cc2)CC1` [Compound T63]: the IC50 (in test [1]; with YAP-TEAD) was 0.1 to 1 µM each time.

Regarding `C=CC(=O)N1CCC(c2ccccc2Nc2ccc(C(F)(F)F)cc2)CC1` [Compound T64], the IC50 (in test [1]; in the test on YAP-TEAD) was not above 0.1 µM each time.

With `C=CC(=O)N1CCC(c2cc3ccccc3nc2Nc2ccc(C(F)(F)F)cc2)CC1` [Compound T65], the IC50 (in test [1]; in the test with YAP-TEAD) was 0.1 to 1 µM in each case.

Take `C=CC(=O)N1CCC(c2cc(OC)cnc2Oc2ccc(C(F)(F)F)cc2)CC1` [Compound T73]: the IC50 (in test [1]; in the test with YAP-TEAD) was 0.1 to 1 µM throughout.

For `C=CC(=O)N1CCC(c2cc(C#N)cnc2Oc2ccc(C(F)(F)F)cc2)CC1` [Compound T74], the IC50 (in test [1]; with YAP-TEAD) was 0.1 to 1 µM throughout.

For the molecule `C=CC(=O)N1CCC(c2cccnc2Oc2ccc(C(F)(F)F)cc2)C(F)(F)C1` (centres unmarked) [Compound T77], the IC50 (in test [1]; in the test on YAP-TEAD) was not above 0.1 µM each time.

For `C=CC(=O)N1C(C)CC(c2cccnc2Oc2ccc(C(F)(F)F)cc2)CC1C` (centres unmarked) [Compound T80], the IC50 (in test [1]; with YAP-TEAD) was not above 0.1 µM in each case.

`C=C(F)C(=O)N1CCC(c2cccnc2Oc2ccc(C(F)(F)F)cc2)C(F)(F)C1` (centres unmarked) [Compound T81]: the IC50 (in test [1]; in the test with YAP-TEAD) was 0.1 to 1 µM in each case.

On to `C=CC(=O)N1CCC(c2nc(C(F)(F)F)cnc2Nc2ccc(C(F)(F)F)cc2)CC1` [Compound T83], for which the IC50 (in test [1]; in the test on YAP-TEAD) was not above 0.1 µM in each case.

In the case of `C=CC(=O)N1CCC(c2nc(C)c(C)nc2Nc2ccc(C(F)(F)F)cc2)CC1` [Compound T93], the IC50 (in test [1]; in the test with YAP-TEAD) was 0.1 to 1 µM throughout.

On to `C=CC(=O)N1CCC(c2cc(-c3ccccn3)cnc2Nc2ccc(C(F)(F)F)cc2)CC1` [Compound T95], for which the 50% inhibitory concentration (IC50) in test [1] is 1 to 5 µM; in the test on YAP-TEAD, 0.1 to 1 µM.

For the molecule `C=CC(=O)N1CCC(c2cc(-c3cccnc3)cnc2Nc2ccc(C(F)(F)F)cc2)CC1` [Compound T96], the IC50 is 1 to 5 µM in test [1] and 0.1 to 1 µM with YAP-TEAD.

`C=CC(=O)N1CCC(c2cc(-c3ccncc3)cnc2Nc2ccc(C(F)(F)F)cc2)CC1` [Compound T97]: the IC50 lay in the range of 1 to 5 µM in test [1] and 0.1 to 1 µM with YAP-TEAD.

For `C=CC(=O)N1CCC(c2cc(-c3ccsc3)cnc2Nc2ccc(C(F)(F)F)cc2)CC1` [Compound T98], the results for the IC50 (in test [1]; in the test on YAP-TEAD) were 1 to 5 µM and 0.1 to 1 µM, respectively.

Consider `C=CC(=O)N1CCC(c2cc(-c3cccs3)cnc2Nc2ccc(C(F)(F)F)cc2)CC1` [Compound T99], for which the IC50 in test [1] is 1 to 5 µM; with YAP-TEAD it was 0.1 to 1 µM.

Consider `Cc1cnc(Nc2ccc(C(F)(F)F)cc2)c(C2CCNCC2)c1` [Reference compound 1, reference compound], for which the IC50 (in test [1] (setting [2]); in the test with YAP-TEAD (setting [2])) was more than 5 µM each time.

Take `Cc1ccc(C2CCNCC2)c(Nc2ccc(C(F)(F)F)cc2)n1` [Reference compound 2, reference compound]: the IC50 (in test [1] (setting [2]); in the test on YAP-TEAD (setting [2])) was more than 5 µM in each case.
